From US10155807B2, “Treating alcohol-mediated disorders by inhibition of RGS6” (UNIVERSITY OF IOWA RESEARCH FOUNDATION, priority 2014, dated 2018)

Experiments:
[1] = system: neonatal VCM isolated from WT and RGS6−/− mice; details: 1 μM, 1.5 hour pre-treatment; 200 mM EtOH 24 hours; WT vs RGS6−/− VCM
Protocol: Twenty-four hours after isolation and plating, cells were treated with 200 mM EtOH (24 hours) in the presence or absence of DPI (1 μM, 1.5 hour pre-treatment) where indicated. […] Intracellular ROS generation was estimated using the cell-permeable oxidation-sensitive probe, CM-H2DCFDA (Sigma) as described previously (Maity et al., J Biol Chem. 2011; 286(2):1409-19). Briefly, cells were harvested by centrifugation, washed three times with ice-cold PBS, re-suspended in PBS and incubated with 5 μM CM-H2DCFDA for 20 minutes at 37° C. After incubation cells were again washed and lysed in PBS with 1% Tween 20. ROS level was determined at the ratio of dichlorofluorescein excitation at 480 nm to emission at 530 nm.

RGS6−/− mice [2] = assay: Short-term free choice alcohol consumption with daily GABABR antagonist treatment; format: in vivo; details: 12.5 mg/kg i.p. daily; 8% EtOH free choice phase
Source text: RGS6 was identified as a critical negative regulator of cerebellum GABABR-regulated motor behavior (Maity et al., J Biol Chem. 2012; 287(7):4972-81). The involvement of GABABR signaling in the reduction in alcohol drinking observed in mice lacking RGS6 was investigated. […] Both the time course of GABABR-induced activation and deactivation of the mitogen activated protein kinase (MAPK) signaling cascade were pro-longed in the cortex of RGS6^−/− mice. […] To directly test the involvement of GABABR signaling in the reduction in alcohol seeking behavior seen in RGS6^−/− mice, the short-term free choice EtOH consumption paradigm was repeated with the addition of daily GABABR antagonist treatments.
Short-term alcohol consumption was measured in WT and RGS6^−/− mice essentially as previously described (Lockridge et al., Alcohol. 2012; 46(4):389-400). First, mice were individually housed for 2 days prior to the experiment. Each cage was then outfitted with two drinking bottles made from graduated serological pipettes sealed with parafilm to prevent evaporation and attached to each cage. […] Volume levels were recorded daily, tubes refilled and mice weighed. […] Alcohol (or saccharin/quinine) preference was calculated by dividing the EtOH volume consumed by the total fluid intake.

[3] = biological target: T1, RGS6:Gαo protein:protein interaction (ppi) (Homo sapiens, UniProt P49758); assay: Alpha Screen dose response, RGS6:Gαo protein:protein interaction; format: binding; details: for IC50: Alpha Screen dose response, truncated RGS6 construct, read-out: IC50 for inhibition of RGS6:Gαo ppi; for selectivity for inhibiting the RGS6:Gαo ppi over the assay (control): ppi vs assay counter-screen
T1 sequence (P49758 336-441 limits assumed): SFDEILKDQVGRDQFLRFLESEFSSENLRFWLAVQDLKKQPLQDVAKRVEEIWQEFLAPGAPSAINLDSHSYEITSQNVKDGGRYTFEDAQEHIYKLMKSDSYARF
Source text: A high throughput screen based upon the protein-protein interaction between RGS6 and its cognate G protein has been developed. This is an approach used for other RGS proteins (Bodle et al. Future Med Chem 5: 995-1007, 2013; Mackie et al. J Biomol Screen 16: 869-877, 2011; Monroy et al. PloS one 8: e62247, 2013). Briefly, human RGS6 and G protein from E. coli is expressed and purified, which are then chemically modified to attach to microspheres. These microspheres (AlphaScreen) are then dispensed into high density experimental plates, with either 384 or 1536 wells per plate. Into each of these wells, an individual compound is dispensed, and through the use of a chemiluminescent reaction between the RGS6 and G protein coated beads, whether or not the two proteins are interacting is determined. […] A critical measure is the “Z-factor,” which indicates the ability to detect an inhibitor based on the screening signal strength, and the difference between positive and negative control values. A Z-factor between 0.5 and 1 is considered to be acceptable, and the Z-factor for the RGS6 assay is quite good, at 0.61. Using this method, a screen of 2320 compounds has been completed in 384-well plates. […] These compounds are being evaluated in testing for specificity and effectiveness in functional assays. Accessing the much larger 50,000 compound Chembridge library held by UI HTS will allow much larger coverage of “chemical space” to sample chemotypes that may represent RGS6 inhibitors with drug like properties.
As described herein, a role for RGS6 in the regulation of alcohol dependency traits, and that inhibition of this protein may act as a therapeutic intervention for the disease of alcohol addiction. As such, 2320 compounds were screened in an initial effort to discover small molecule inhibitors of the RGS6:Gαo protein:protein interaction (ppi). Alpha screen technology was used in this screen, where both proteins are conjugated to their respective donor or acceptor beads and if a ppi exists the proximity of the beads to each other results in emission of light at 520-620 nm. If a small molecule disrupts the ppi, then the intensity of light emitted is diminished.
IC50 values were obtained from dose response experiments using Alpha Screen technology. Compounds were determined to be promising based on these IC50 values, and based on the selectivity the compounds had for inhibiting the ppi versus inhibiting the assay. Since the Alpha Screen assay utilizes emitted light produced by singlet oxygen interacting with the acceptor bead as a determinant of ppi, highly colored compounds, or compounds that act as oxygen scavengers can produce false positive inhibition of the assay. […] This was not determined for UI1956.
The compounds identified in this screen represent the first generation of RGS6 inhibitors. A larger screening campaign will yield molecules that are both potent and selective for inhibiting RGS6 while containing minimal reactive substructures thus cutting down on the possible side effects that reactive molecules often produce. An additional screen will utilize the full RGS6 protein. This differs from the preliminary screen above in that a truncated RGS6 construct was used for ease of purification. […]

RGS6−/− mice [4] = assay: Activity measurement in home cage after baclofen (sedation); format: in vivo; details: 10 mg/kg i.p.; immobility time over 20 min
Protocol: After drug treatment mice were placed back in their home cage and behavior videotaped for 20 min. Videos were scored for total immobility time (no discernable ambulation, grooming, social or other behaviors) by an observer blinded to mouse genotype. Data are presented as percent total time spent immobile.

Structure (SMILES) | IC50 [3] [µM] | selectivity for inhibiting the RGS6:Gαo ppi over the assay (control) [3] [fold] | other results
c1ccc2c(c1)[I+]c1ccccc1-2 [DPI, diphenyleneiodonium] |  |  | alcohol-induced ROS generation in VCM [1]: significantly reduced ROS generation in WT but not RGS6^−/− VCM
CC1(C)CO[C@@H](CC(=O)O)CN1 [SCH-50911] |  |  | effect on reduced EtOH consumption of RGS6−/− mice (RGS6−/− mice [2]): partially reversed the reduction in alcohol consumption
Oc1ccc2c(c1)OCC1(O)Cc3cc(O)c(O)cc3C21 (centres unmarked) [UI1910] | 17 | 30 | 
O=C1C=C2C[C@@]3(O)COc4cc(O)ccc4C3=C2C=C1O [UI1935] | 49 | 5 | 
O=c1c(-c2cc(O)c(O)c(O)c2)coc2cc(O)c(O)c(O)c12 [UI1956] | 42 |  | 
NCC(CC(=O)O)c1ccc(Cl)cc1 (centres unmarked) [baclofen] |  |  | sedative effect in RGS6−/− mice (RGS6−/− mice [4]): remarkably sensitized to the sedative effects
